“Also recorded” adds a separate entry of the source.
How the values were obtained:
[1] = Chemical hydrolysis under gastric juice-like conditions; format: physicochemical
human NTPDase1 = molecular target: T1, human NTPDase1 (Homo sapiens, UniProt P49961); experiment: Hydrolysis by NTPDase1; format: biochemical
T1 sequence (P49961 1-510): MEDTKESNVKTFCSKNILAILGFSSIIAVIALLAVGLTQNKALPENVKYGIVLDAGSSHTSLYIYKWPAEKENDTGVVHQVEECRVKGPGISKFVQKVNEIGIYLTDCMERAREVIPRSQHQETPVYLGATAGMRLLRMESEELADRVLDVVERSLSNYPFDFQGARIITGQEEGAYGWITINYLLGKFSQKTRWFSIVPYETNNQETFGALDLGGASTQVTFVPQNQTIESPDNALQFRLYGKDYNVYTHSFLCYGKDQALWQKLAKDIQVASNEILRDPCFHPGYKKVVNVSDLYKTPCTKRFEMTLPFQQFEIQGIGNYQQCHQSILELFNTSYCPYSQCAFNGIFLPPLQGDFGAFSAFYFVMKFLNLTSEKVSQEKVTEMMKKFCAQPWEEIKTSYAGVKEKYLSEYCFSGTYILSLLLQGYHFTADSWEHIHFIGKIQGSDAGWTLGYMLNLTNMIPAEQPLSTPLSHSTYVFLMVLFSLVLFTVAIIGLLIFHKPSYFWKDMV

human NTPDase2 = molecular target: T2, human NTPDase2 (Homo sapiens, UniProt Q9Y5L3); experiment: Hydrolysis by NTPDase2; format: biochemical; conditions: 100 μM substrate; relative to ATP hydrolysis (100%)
T2 sequence (Q9Y5L3 1-495): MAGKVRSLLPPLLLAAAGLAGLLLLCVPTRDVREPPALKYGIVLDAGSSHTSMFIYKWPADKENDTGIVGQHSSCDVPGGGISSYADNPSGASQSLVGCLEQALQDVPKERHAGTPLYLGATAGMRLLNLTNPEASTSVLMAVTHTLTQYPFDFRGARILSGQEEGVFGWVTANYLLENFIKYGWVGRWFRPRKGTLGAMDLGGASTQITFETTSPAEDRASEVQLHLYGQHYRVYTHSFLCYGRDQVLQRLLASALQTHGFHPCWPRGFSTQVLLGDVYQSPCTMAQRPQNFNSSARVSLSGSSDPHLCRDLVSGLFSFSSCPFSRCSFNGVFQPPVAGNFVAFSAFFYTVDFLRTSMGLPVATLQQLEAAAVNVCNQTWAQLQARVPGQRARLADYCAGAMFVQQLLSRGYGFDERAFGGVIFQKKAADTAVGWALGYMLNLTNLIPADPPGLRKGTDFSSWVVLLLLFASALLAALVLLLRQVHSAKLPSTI

human NTPDase3 = molecular target: T3, human NTPDase3 (Homo sapiens, UniProt O75355); experiment: Hydrolysis by NTPDase3; format: biochemical
T3 sequence (O75355 1-529): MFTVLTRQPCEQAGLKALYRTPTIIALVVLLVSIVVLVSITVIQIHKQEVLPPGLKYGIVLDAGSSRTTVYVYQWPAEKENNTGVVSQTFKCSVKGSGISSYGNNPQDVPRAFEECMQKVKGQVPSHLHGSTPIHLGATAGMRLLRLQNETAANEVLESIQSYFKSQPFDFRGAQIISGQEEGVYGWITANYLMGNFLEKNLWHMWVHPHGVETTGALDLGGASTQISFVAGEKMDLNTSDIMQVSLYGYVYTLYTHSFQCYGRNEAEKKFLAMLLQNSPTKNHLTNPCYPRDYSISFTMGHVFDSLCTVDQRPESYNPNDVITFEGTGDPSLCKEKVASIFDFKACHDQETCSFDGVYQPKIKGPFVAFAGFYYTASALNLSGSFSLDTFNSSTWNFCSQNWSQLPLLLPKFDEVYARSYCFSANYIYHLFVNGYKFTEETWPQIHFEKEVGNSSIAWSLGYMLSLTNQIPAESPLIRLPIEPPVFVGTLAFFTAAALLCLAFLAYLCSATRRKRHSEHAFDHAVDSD

human NTPDase8 = molecular target: T4, human NTPDase8 (Homo sapiens, UniProt Q5MY95); experiment: Hydrolysis by NTPDase8; format: biochemical
T4 sequence (Q5MY95 1-495): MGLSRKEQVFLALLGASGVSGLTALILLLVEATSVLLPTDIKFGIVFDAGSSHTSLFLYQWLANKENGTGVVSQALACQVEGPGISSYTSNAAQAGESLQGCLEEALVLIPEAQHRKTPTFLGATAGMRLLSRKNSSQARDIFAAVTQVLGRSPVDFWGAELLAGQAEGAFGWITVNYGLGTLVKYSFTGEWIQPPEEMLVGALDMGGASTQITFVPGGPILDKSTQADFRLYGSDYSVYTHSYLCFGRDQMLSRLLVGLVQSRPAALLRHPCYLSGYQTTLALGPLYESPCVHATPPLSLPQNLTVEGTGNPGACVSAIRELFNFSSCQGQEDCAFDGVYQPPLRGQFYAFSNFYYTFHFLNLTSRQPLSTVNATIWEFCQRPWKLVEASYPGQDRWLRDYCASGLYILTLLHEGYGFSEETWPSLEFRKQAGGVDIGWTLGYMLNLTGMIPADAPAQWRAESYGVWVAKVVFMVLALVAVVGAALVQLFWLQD

turkey P2Y1 receptor = turkey P2Y1 receptor (Meleagris gallopavo, UniProt P49652); format: cell-based; conditions: 1321N1 cell transfectants
turkey P2Y1 receptor, sequence (P49652 whole entry): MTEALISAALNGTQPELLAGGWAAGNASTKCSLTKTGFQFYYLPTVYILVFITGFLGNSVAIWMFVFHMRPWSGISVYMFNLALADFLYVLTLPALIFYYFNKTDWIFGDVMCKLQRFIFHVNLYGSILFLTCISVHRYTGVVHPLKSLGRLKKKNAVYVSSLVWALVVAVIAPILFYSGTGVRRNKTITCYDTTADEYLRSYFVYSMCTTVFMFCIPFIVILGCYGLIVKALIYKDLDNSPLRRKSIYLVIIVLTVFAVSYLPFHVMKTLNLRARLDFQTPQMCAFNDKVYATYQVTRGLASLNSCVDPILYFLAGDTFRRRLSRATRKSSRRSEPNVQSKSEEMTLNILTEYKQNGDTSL

human P2Y2 receptor = human P2Y2 receptor (Homo sapiens, UniProt P41231); experiment: Increase in [Ca2+]i in 1321N1 astrocytoma cells expressing P2Y2 receptor; format: cell-based; conditions: read-out: EC50 of analogue-induced increase in [Ca2+]i, P2Y2; 1321N1 cell transfectants
human P2Y2 receptor, sequence (P41231 whole entry): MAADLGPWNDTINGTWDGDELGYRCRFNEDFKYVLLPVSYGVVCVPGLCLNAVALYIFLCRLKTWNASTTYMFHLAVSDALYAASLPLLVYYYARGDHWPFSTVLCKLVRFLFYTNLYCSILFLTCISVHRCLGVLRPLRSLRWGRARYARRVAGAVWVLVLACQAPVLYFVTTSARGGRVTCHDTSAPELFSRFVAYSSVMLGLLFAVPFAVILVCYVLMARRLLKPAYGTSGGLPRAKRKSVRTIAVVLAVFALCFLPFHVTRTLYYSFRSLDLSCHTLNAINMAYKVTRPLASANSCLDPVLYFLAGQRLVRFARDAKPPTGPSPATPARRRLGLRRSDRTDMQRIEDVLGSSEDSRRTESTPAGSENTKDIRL

human P2Y4 receptor = human P2Y4 receptor (Homo sapiens, UniProt P51582); experiment: Increase in [Ca2+]i in 1321N1 astrocytoma cells expressing P2Y4 receptor; format: cell-based; conditions: read-out: EC50 of analogue-induced increase in [Ca2+]i, P2Y4; 1321N1 cell transfectants
human P2Y4 receptor, sequence (P51582 whole entry): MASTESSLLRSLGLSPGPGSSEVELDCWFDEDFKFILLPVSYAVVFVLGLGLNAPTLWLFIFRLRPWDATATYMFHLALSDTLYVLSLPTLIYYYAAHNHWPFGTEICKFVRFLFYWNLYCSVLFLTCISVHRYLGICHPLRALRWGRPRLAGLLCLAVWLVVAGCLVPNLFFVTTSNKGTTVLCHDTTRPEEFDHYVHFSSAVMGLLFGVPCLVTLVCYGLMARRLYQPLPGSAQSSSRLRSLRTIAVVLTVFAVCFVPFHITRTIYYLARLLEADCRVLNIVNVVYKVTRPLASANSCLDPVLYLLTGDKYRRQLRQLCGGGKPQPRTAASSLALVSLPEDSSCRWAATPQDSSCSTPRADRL

rat P2Y6 receptor = rat P2Y6 receptor (Rattus norvegicus, UniProt Q63371); experiment: Increase in [Ca2+]i in 1321N1 astrocytoma cells expressing P2Y6 receptor; format: cell-based; conditions: read-out: EC50 of analogue-induced increase in [Ca2+]i, P2Y6; 1321N1 cell transfectants
rat P2Y6 receptor, sequence (Q63371 whole entry): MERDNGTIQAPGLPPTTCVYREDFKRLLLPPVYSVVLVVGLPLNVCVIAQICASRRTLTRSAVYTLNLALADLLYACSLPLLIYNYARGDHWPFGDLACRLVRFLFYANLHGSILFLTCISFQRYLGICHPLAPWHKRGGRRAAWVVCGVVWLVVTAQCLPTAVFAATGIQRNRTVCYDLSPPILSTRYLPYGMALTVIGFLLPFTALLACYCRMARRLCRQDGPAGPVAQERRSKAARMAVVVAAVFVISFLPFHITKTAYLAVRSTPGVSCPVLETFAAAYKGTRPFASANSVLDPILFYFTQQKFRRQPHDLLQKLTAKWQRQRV

[2] = Stability in human blood serum, Method B
P2Y2R = conditions: cited from earlier work
human NPP1 = molecular target: T5, human NPP1 (Homo sapiens, UniProt P22413); experiment: Hydrolysis by NPP1; format: biochemical
T5 sequence (P22413 1-925): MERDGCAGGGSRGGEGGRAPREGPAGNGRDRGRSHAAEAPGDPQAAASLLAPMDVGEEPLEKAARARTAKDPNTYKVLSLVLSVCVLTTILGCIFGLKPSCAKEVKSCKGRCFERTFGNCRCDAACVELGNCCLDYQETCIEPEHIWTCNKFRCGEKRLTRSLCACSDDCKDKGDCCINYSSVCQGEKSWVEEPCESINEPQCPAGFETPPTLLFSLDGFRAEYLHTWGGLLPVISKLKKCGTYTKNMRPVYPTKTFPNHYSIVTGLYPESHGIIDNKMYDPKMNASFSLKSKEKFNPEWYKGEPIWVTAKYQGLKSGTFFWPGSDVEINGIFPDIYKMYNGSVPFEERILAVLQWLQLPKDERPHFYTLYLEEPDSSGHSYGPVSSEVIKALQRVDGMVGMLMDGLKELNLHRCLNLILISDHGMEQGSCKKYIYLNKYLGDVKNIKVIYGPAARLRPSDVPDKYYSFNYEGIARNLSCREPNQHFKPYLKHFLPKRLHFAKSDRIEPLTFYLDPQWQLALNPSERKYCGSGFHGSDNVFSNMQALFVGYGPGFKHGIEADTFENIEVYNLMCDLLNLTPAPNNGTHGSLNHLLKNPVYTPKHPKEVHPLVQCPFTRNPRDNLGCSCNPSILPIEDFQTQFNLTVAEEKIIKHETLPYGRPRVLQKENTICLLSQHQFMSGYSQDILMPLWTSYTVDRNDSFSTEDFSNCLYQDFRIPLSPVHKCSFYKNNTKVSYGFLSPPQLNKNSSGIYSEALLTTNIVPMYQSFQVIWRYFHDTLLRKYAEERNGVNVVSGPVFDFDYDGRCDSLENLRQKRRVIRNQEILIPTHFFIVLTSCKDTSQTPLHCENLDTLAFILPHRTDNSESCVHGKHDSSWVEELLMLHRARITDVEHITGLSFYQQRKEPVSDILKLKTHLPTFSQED

human NPP3 = molecular target: T6, human NPP3 (Homo sapiens, UniProt O14638); experiment: Hydrolysis by NPP3; format: biochemical
T6 sequence (O14638 1-875): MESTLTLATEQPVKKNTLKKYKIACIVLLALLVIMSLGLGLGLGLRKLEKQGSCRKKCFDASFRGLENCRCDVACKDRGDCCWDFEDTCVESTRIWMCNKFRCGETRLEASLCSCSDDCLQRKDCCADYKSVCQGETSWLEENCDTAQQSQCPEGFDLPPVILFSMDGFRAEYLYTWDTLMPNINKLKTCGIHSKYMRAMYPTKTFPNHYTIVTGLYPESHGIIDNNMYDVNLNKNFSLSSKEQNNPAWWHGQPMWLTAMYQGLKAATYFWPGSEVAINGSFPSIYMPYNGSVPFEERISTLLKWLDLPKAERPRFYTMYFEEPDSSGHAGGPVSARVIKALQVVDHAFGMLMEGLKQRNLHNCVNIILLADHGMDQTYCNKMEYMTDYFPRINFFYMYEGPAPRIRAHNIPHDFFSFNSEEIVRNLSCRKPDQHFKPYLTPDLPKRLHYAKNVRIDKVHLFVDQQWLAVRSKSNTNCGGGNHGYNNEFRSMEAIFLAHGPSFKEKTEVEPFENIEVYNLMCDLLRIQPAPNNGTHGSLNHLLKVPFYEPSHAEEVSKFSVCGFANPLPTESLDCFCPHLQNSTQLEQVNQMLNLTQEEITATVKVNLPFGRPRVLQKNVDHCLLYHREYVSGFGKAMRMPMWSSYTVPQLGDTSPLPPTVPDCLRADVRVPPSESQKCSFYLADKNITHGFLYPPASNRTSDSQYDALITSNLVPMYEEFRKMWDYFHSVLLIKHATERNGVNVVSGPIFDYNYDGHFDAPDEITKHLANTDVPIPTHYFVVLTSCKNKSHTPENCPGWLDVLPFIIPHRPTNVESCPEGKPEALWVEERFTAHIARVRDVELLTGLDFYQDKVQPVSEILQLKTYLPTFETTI

P2Y1R = conditions: cited from earlier work
[3] = pKa and degree of ionization of phosphate/phosphonate; format: physicochemical; conditions: physiological conditions, pH 7.4
[4] = 100 μM substrate, relative to ATP hydrolysis (100%)
[5] = 100 μM substrate, relative to pnp-TMP hydrolysis (100%)

Compound: [BH3-][P+](O)(OC[C@H]1O[C@@H](n2cnc3c(N)nc(SC)nc32)[C@H](O)[C@@H]1O)OP(=O)(O)CP(=O)(O)O (single isomer, unassigned) [4B, 2-MeS–adenosine-5′-O-(α-boranotriphosphate)-β,γ-CH2]
- t1/2 of acidic hydrolysis ([1]; KCl/HCl buffer pH 1.4, 37 °C, 31P NMR (2) or HPLC-MS (3B, 4B)): 14.5 h
- Relative activity of NTPDase1 (human NTPDase1; [4]): <1%
- Relative activity of NTPDase2 (human NTPDase2): 1.0 ± 0.3%
- Relative activity of NTPDase3 (human NTPDase3; [4]): 2.0 ± 1.0%
- Relative activity of NTPDase8 (human NTPDase8; [4]): 3.0 ± 07%
- agonist activity at P2Y1R (turkey P2Y1 receptor): potent P2Y1R agonists; also recorded: active isomer
- EC50 (turkey P2Y1 receptor; read-out: EC50 of analogue-induced increase in [Ca2+]i, P2Y1): 17.2 ± 5.3 µM
- EC50 (human P2Y2 receptor): > 100 µM
- EC50 (human P2Y4 receptor): > 100 µM
- EC50 (rat P2Y6 receptor): > 100 µM
- t1/2 in human blood serum ([2]; Method B, human blood serum and RPMI-1640, 37 °C): 71.9 h

Compound: BP(=O)(OC[C@H]1O[C@@H](n2cnc3c(N)nc(Cl)nc32)[C@H](O)[C@@H]1O)OP(=O)(O)OP(=O)(O)O (stereo partly drawn) [2-Cl–ATP-α-B, reference compound]
- activity at P2Y2R (P2Y2R): very weak agonists

Compound: Cc1cn([C@H]2C[C@H](O)[C@@H](COP(=O)(O)Oc3ccc([N+](=O)[O-])cc3)O2)c(=O)[nH]c1=O [pnp-TMP, p-nitrophenylthymidine-5′-monophosphate, reference compound]
- 100% activity of NPP1 with pnp-TMP as substrate (human NPP1; 100 μM pnp-TMP): 24 ± 2 nmol p-nitrophenol/min·mg protein
- Relative activity of NPP1 (human NPP1; [5]): 100%
- 100% activity of NPP3 with pnp-TMP as substrate (human NPP3; 100 μM pnp-TMP): 53 ± 4 nmol p-nitrophenol/min·mg protein
- Relative activity of NPP3 (human NPP3; [5]): 100%

Compound: BP(=O)(OC[C@H]1O[C@@H](n2cnc3c(N)ncnc32)[C@H](O)[C@@H]1O)OP(=O)(O)CP(=O)(O)O (stereo partly drawn) [compound 3, Adenosine-5′-O-(α-boranotriphosphate)-β,γ-CH2]
- improvement of chemical stability as compared to 1 ([1]; pH 1.4, 37 °C): ca. 3 fold

Compound: Nc1ncnc2c1ncn2[C@@H]1O[C@H](COP(=O)(O)OP(=O)(O)O)[C@@H](O)[C@H]1O [ADP]
- EC50 (P2Y1R; read-out: EC50 at P2Y1R, endogenous agonist ref 1): ~0.1 µM

Compound: CSc1nc(N)c2ncn([C@@H]3O[C@H](COP(=O)(O)OP(=O)(O)O)[C@@H](O)[C@H]3O)c2n1 [2-MeS-ADP]
- fraction ionized [3]: 91%

Compound: 2-MeS–ATP-α-B [1A]
- potency of 1A isomer relative to 1B isomer at P2Y1R (P2Y1R): 20 fold

Compound: CSc1nc(N)c2ncn([C@@H]3O[C@H](COP(=O)(O)OP(=O)(O)OP(=O)(O)O)[C@@H](O)[C@H]3O)c2n1 [2-MeS–ATP]
- fraction ionized [3]: 91%

Compound: Nc1ncnc2c1ncn2[C@@H]1O[C@H](COP(=O)(O)OP(=O)(O)OP(=O)(O)O)[C@@H](O)[C@H]1O [ATP, reference compound]
- ATPase activity (100%) of NTPDase1 (human NTPDase1; 100 μM ATP): 497 ± 38 nmol Pi/min·mg protein
- ATPase activity (100%) of NTPDase3 (human NTPDase3; 100 μM ATP): 493 ± 21 nmol Pi/min·mg protein
- ATPase activity (100%) of NTPDase8 (human NTPDase8; 100 μM ATP): 173 ± 18 nmol Pi/min·mg protein

Compound: BP(=O)(OC[C@H]1O[C@@H](n2cnc3c(N)nc(SC)nc32)[C@H](O)[C@@H]1O)OP(=O)(O)CP(=O)(O)O (stereo partly drawn) [compound 4, 2-MeS–adenosine-5′-O-(α-boranotriphosphate)-β,γ-CH2]
- enhancement of the metabolic stability of ATP ([2]; human blood serum, half-life vs ATP): ≥ 20 fold
